{"source": "the NIST ThermoML archive (doi:10.1016/j.tca.2007.02.022)", "key": {"[1]": {"experiment": "molar heat capacity at constant pressure", "conditions": "101.33 kPa"}, "[2]": {"conditions": "Crystal"}}, "note": "Values joined by “and” are separate entries in the source; they are usually repeats but may differ in a detail not shown here. Identical values can stand only once. ± gives the expanded uncertainty stated by the source."}
{"smiles": "OC[C@@H](O)[C@H](O)[C@@H](O)CO", "note": "[xylitol]", "values": [{"measurement": "molar heat capacity at constant pressure", "setting": "[1]; 225 K, Crystal", "result": "169.6 ± 3.7", "unit": "J/K/mol"}, {"measurement": "molar heat capacity at constant pressure", "setting": "[1]; 227.46 K, Crystal", "result": "168.2 ± 3.7", "unit": "J/K/mol"}, {"measurement": "molar heat capacity at constant pressure", "setting": "[1]; 230 K, Crystal", "result": "173.4 ± 3.7", "unit": "J/K/mol"}, {"measurement": "molar heat capacity at constant pressure", "setting": "[1]; 230.62 K, Crystal", "result": "170.6 ± 3.7", "unit": "J/K/mol"}, {"measurement": "molar heat capacity at constant pressure", "setting": "[1]; 233.78 K, Crystal", "result": "172.5 ± 3.7", "unit": "J/K/mol"}, {"measurement": "molar heat capacity at constant pressure", "setting": "[1]; 235 K, Crystal", "result": "177.1 ± 3.8", "unit": "J/K/mol"}, {"measurement": "molar heat capacity at constant pressure", "setting": "[1]; 236.94 K, Crystal", "result": "174 ± 3.7", "unit": "J/K/mol"}, {"measurement": "molar heat capacity at constant pressure", "setting": "[1]; 240 K, Crystal", "result": "180.8 ± 3.8", "unit": "J/K/mol"}, {"measurement": "molar heat capacity at constant pressure", "setting": "[1]; 240.13 K, Crystal", "result": "176.1 ± 3.8", "unit": "J/K/mol"}, {"measurement": "molar heat capacity at constant pressure", "setting": "[1]; 243.21 K, Crystal", "result": "178.2 ± 3.8", "unit": "J/K/mol"}, {"measurement": "molar heat capacity at constant pressure", "setting": "[1]; 245 K, Crystal", "result": "184.4 ± 3.8", "unit": "J/K/mol"}, {"measurement": "molar heat capacity at constant pressure", "setting": "[1]; 246.34 K, Crystal", "result": "180.8 ± 3.8", "unit": "J/K/mol"}, {"measurement": "molar heat capacity at constant pressure", "setting": "[1]; 249.48 K, Crystal", "result": "182.2 ± 3.8", "unit": "J/K/mol"}, {"measurement": "molar heat capacity at constant pressure", "setting": "[1]; 250 K, Crystal", "result": "188 ± 3.9", "unit": "J/K/mol"}, {"measurement": "molar heat capacity at constant pressure", "setting": "[1]; 252.61 K, Crystal", "result": "184.3 ± 3.8", "unit": "J/K/mol"}, {"measurement": "molar heat capacity at constant pressure", "setting": "[1]; 255 K, Crystal", "result": "191.5 ± 3.9", "unit": "J/K/mol"}, {"measurement": "molar heat capacity at constant pressure", "setting": "[1]; 255.78 K, Crystal", "result": "186.3 ± 3.9", "unit": "J/K/mol"}, {"measurement": "molar heat capacity at constant pressure", "setting": "[1]; 258.93 K, Crystal", "result": "188.6 ± 3.9", "unit": "J/K/mol"}, {"measurement": "molar heat capacity at constant pressure", "setting": "[1]; 260 K, Crystal", "result": "195 ± 4", "unit": "J/K/mol"}, {"measurement": "molar heat capacity at constant pressure", "setting": "[1]; 262.07 K, Crystal", "result": "191 ± 3.9", "unit": "J/K/mol"}, {"measurement": "molar heat capacity at constant pressure", "setting": "[1]; 265 K, Crystal", "result": "198.3 ± 4", "unit": "J/K/mol"}, {"measurement": "molar heat capacity at constant pressure", "setting": "[1]; 265.19 K, Crystal", "result": "193.2 ± 3.9", "unit": "J/K/mol"}, {"measurement": "molar heat capacity at constant pressure", "setting": "[1]; 268.29 K, Crystal", "result": "195.2 ± 4", "unit": "J/K/mol"}, {"measurement": "molar heat capacity at constant pressure", "setting": "[1]; 270 K, Crystal", "result": "201.6 ± 4", "unit": "J/K/mol"}, {"measurement": "molar heat capacity at constant pressure", "setting": "[1]; 271.44 K, Crystal", "result": "197.5 ± 4", "unit": "J/K/mol"}, {"measurement": "molar heat capacity at constant pressure", "setting": "[1]; 274.65 K, Crystal", "result": "199.6 ± 4", "unit": "J/K/mol"}, {"measurement": "molar heat capacity at constant pressure", "setting": "[1]; 275 K, Crystal", "result": "204.8 ± 4", "unit": "J/K/mol"}, {"measurement": "molar heat capacity at constant pressure", "setting": "[1]; 277.84 K, Crystal", "result": "201.9 ± 4", "unit": "J/K/mol"}, {"measurement": "molar heat capacity at constant pressure", "setting": "[1]; 280 K, Crystal", "result": "208 ± 4.1", "unit": "J/K/mol"}, {"measurement": "molar heat capacity at constant pressure", "setting": "[1]; 281.02 K, Crystal", "result": "204.7 ± 4", "unit": "J/K/mol"}, {"measurement": "molar heat capacity at constant pressure", "setting": "[1]; 284.19 K, Crystal", "result": "207.3 ± 4.1", "unit": "J/K/mol"}, {"measurement": "molar heat capacity at constant pressure", "setting": "[1]; 285 K, Crystal", "result": "211.1 ± 4.1", "unit": "J/K/mol"}, {"measurement": "molar heat capacity at constant pressure", "setting": "[1]; 287.39 K, Crystal", "result": "210.2 ± 4.1", "unit": "J/K/mol"}, {"measurement": "molar heat capacity at constant pressure", "setting": "[1]; 290 K, Crystal", "result": "214.2 ± 4.1", "unit": "J/K/mol"}, {"measurement": "molar heat capacity at constant pressure", "setting": "[1]; 290.63 K, Crystal", "result": "212.7 ± 4.1", "unit": "J/K/mol"}, {"measurement": "molar heat capacity at constant pressure", "setting": "[1]; 293.83 K, Crystal", "result": "215.1 ± 4.2", "unit": "J/K/mol"}, {"measurement": "molar heat capacity at constant pressure", "setting": "[1]; 295 K, Crystal", "result": "217.4 ± 4.2", "unit": "J/K/mol"}, {"measurement": "molar heat capacity at constant pressure", "setting": "[1]; 297.06 K, Crystal", "result": "217.8 ± 4.2", "unit": "J/K/mol"}, {"measurement": "molar heat capacity at constant pressure", "setting": "[1]; 298.15 K, Crystal", "result": "219.4 ± 4.2", "unit": "J/K/mol"}, {"measurement": "molar heat capacity at constant pressure", "setting": "[1]; 300 K, Crystal", "result": "220.7 ± 4.2", "unit": "J/K/mol"}, {"measurement": "molar heat capacity at constant pressure", "setting": "[1]; 300.4 K, Crystal", "result": "220.6 ± 4.2", "unit": "J/K/mol"}, {"measurement": "molar heat capacity at constant pressure", "setting": "[1]; 303.7 K, Crystal", "result": "223.9 ± 4.2", "unit": "J/K/mol"}, {"measurement": "molar heat capacity at constant pressure", "setting": "[1]; 305 K, Crystal", "result": "224.2 ± 4.2", "unit": "J/K/mol"}, {"measurement": "molar heat capacity at constant pressure", "setting": "[1]; 310 K, Crystal", "result": "227.9 ± 4.3", "unit": "J/K/mol"}, {"measurement": "molar heat capacity at constant pressure", "setting": "[1]; 310.42 K, Crystal", "result": "229.1 ± 4.3", "unit": "J/K/mol"}, {"measurement": "molar heat capacity at constant pressure", "setting": "[1]; 314.19 K, Crystal", "result": "232.7 ± 4.3", "unit": "J/K/mol"}, {"measurement": "molar heat capacity at constant pressure", "setting": "[1]; 315 K, Crystal", "result": "232.1 ± 4.3", "unit": "J/K/mol"}, {"measurement": "molar heat capacity at constant pressure", "setting": "[1]; 318.33 K, Crystal", "result": "237.1 ± 4.4", "unit": "J/K/mol"}, {"measurement": "molar heat capacity at constant pressure", "setting": "[1]; 320 K, Crystal", "result": "236.9 ± 4.4", "unit": "J/K/mol"}, {"measurement": "molar heat capacity at constant pressure", "setting": "[1]; 322.65 K, Crystal", "result": "240.3 ± 4.4", "unit": "J/K/mol"}, {"measurement": "molar heat capacity at constant pressure", "setting": "[1]; 325 K, Crystal", "result": "242.4 ± 4.4", "unit": "J/K/mol"}, {"measurement": "molar heat capacity at constant pressure", "setting": "[1]; 326.89 K, Crystal", "result": "244.7 ± 4.4", "unit": "J/K/mol"}, {"measurement": "molar heat capacity at constant pressure", "setting": "[1]; 330 K, Crystal", "result": "248.8 ± 4.5", "unit": "J/K/mol"}, {"measurement": "molar heat capacity at constant pressure", "setting": "[1]; 331.21 K, Crystal", "result": "251.3 ± 4.5", "unit": "J/K/mol"}, {"measurement": "molar heat capacity at constant pressure", "setting": "[1]; 335 K, Crystal", "result": "256.3 ± 4.6", "unit": "J/K/mol"}, {"measurement": "molar heat capacity at constant pressure", "setting": "[1]; 335.57 K, Crystal", "result": "258.1 ± 4.6", "unit": "J/K/mol"}, {"measurement": "molar heat capacity at constant pressure", "setting": "[1]; 339.95 K, Crystal", "result": "261.8 ± 4.6", "unit": "J/K/mol"}, {"measurement": "molar heat capacity at constant pressure", "setting": "[1]; 340 K, Crystal", "result": "265.3 ± 4.7", "unit": "J/K/mol"}, {"measurement": "molar heat capacity at constant pressure", "setting": "[1]; 344.29 K, Crystal", "result": "261.9 ± 4.6", "unit": "J/K/mol"}, {"measurement": "molar heat capacity at constant pressure", "setting": "[1]; 345 K, Crystal", "result": "275.9 ± 4.8", "unit": "J/K/mol"}, {"measurement": "molar heat capacity at constant pressure", "setting": "[1]; 348.52 K, Crystal", "result": "262.4 ± 4.6", "unit": "J/K/mol"}, {"measurement": "molar heat capacity at constant pressure", "setting": "[1]; 350 K, Crystal", "result": "288.6 ± 4.9", "unit": "J/K/mol"}, {"measurement": "molar heat capacity at constant pressure", "setting": "[1]; 352.73 K, Crystal", "result": "271.3 ± 4.7", "unit": "J/K/mol"}, {"measurement": "molar heat capacity at constant pressure", "setting": "[1]; 355 K, Crystal", "result": "303.6 ± 5", "unit": "J/K/mol"}, {"measurement": "molar heat capacity at constant pressure", "setting": "[1]; 356.88 K, Crystal", "result": "286.2 ± 4.9", "unit": "J/K/mol"}, {"measurement": "molar heat capacity at constant pressure", "setting": "[1]; 360 K, Crystal", "result": "321.5 ± 5.2", "unit": "J/K/mol"}, {"measurement": "molar heat capacity at constant pressure", "setting": "[1]; 360.92 K, Crystal", "result": "323.9 ± 5.2", "unit": "J/K/mol"}, {"measurement": "molar heat capacity at constant pressure", "setting": "[1]; 370 K, Liquid", "result": "420.6 ± 6.2", "unit": "J/K/mol"}, {"measurement": "molar heat capacity at constant pressure", "setting": "[1]; 372.89 K, Liquid", "result": "422 ± 6.2", "unit": "J/K/mol"}, {"measurement": "molar heat capacity at constant pressure", "setting": "[1]; 375 K, Liquid", "result": "423.4 ± 6.2", "unit": "J/K/mol"}, {"measurement": "molar heat capacity at constant pressure", "setting": "[1]; 376.72 K, Liquid", "result": "424.4 ± 6.2", "unit": "J/K/mol"}, {"measurement": "molar heat capacity at constant pressure", "setting": "[1]; 380 K, Liquid", "result": "426.2 ± 6.3", "unit": "J/K/mol"}, {"measurement": "molar heat capacity at constant pressure", "setting": "[1]; 380.91 K, Liquid", "result": "427 ± 6.3", "unit": "J/K/mol"}, {"measurement": "molar heat capacity at constant pressure", "setting": "[1]; 385 K, Liquid", "result": "429 ± 6.3", "unit": "J/K/mol"}, {"measurement": "molar heat capacity at constant pressure", "setting": "[1]; 385.11 K, Liquid", "result": "428.8 ± 6.3", "unit": "J/K/mol"}, {"measurement": "molar heat capacity at constant pressure", "setting": "[1]; 390 K, Liquid", "result": "431.8 ± 6.3", "unit": "J/K/mol"}, {"measurement": "Triple point temperature", "setting": "[2]", "result": "367.52 ± 5 K and 369.06 ± 0.5 K"}]}
